Here are results for four molecules from ChEMBL document CHEMBL1157482, “Insight from molecular modeling into different conformation and SAR of natural steroids and unnatural 7-oxa-steroids” (Bioorg Med Chem Lett, 2008).

The subject of data set [1] is Rattus norvegicus. The experiment in a line: Antiprogestin activity against ovariectomized Sprague-Dawley rat assessed as effect on ethinyl estradiol-induced C3 expression at 10 mg/kg, po. It is filed as functional.
For data set [2], the system named is Rattus norvegicus. Briefly: Antiprogestin activity against ovariectomized po dosed Sprague-Dawley rat assessed as effect on ethinyl estradiol-induced C3 expression. In kind it is functional. The conditions noted are these: read-out: ID50 (the source's name).
A short description of data set [3]: Mean retention time in rat at 10 mg/kg, po. In kind it is ADME, organism-based. Also on record: dose 10 mg/kg, route oral. To be noted: in vivo.
A short description of data set [4]: Cmax in rat at 10 mg/kg, po. In kind it is ADME, organism-based. Also on record: dose 10 mg/kg, route oral. The conditions noted are these: in vivo.
The test system of data set [5] is Rattus norvegicus. Briefly: AUC (0 to infinity) in rat at 10 mg/kg, po. The conditions noted are these: in vivo. Also on record: dose 10 mg/kg, route oral, time infinity. In kind it is ADME, organism-based, Plasma.
Data set [6] can be described thus: Tmax in rat at 10 mg/kg, po. It is filed as ADME, organism-based. Also on record: dose 10 mg/kg, route oral. To be noted: in vivo.
Data set [7] deals with Rattus norvegicus. The experiment in a line: AUC (last) in rat at 10 mg/kg, po. In kind it is ADME, organism-based, Plasma. Also on record: time 0 - last, dose 10 mg/kg, route oral. The conditions noted are these: in vivo.
A short description of data set [8]: Half life in rat at 10 mg/kg, po. It is filed as ADME, organism-based. Also on record: dose 10 mg/kg, route oral. The conditions noted are these: in vivo.
Data set [9] has as its system Rattus norvegicus. The experiment in a line: AUC (0 to infinity) in rat at 30 mg/kg, po. It is filed as ADME, organism-based, Plasma. The conditions noted are these: in vivo. Also on record: time infinity, dose 30 mg/kg, route oral.
Data set [10] can be described thus: Cmax in rat at 30 mg/kg, po. In kind it is ADME, organism-based. The conditions noted are these: in vivo. Also on record: dose 30 mg/kg, route oral.
A short description of data set [11]: Tmax in rat at 30 mg/kg, po. In kind it is ADME, organism-based. Also on record: dose 30 mg/kg, route oral. To be noted: in vivo.
The test system of data set [12] is Rattus norvegicus. Briefly: AUC (last) in rat at 30 mg/kg, po. In kind it is ADME, organism-based, Plasma. Also on record: time 0 - last, dose 30 mg/kg, route oral. To be noted: in vivo.
Data set [13] is described as follows: Mean retention time in rat at 30 mg/kg, po. Also on record: dose 30 mg/kg, route oral. It is filed as ADME, organism-based. To be noted: in vivo.
Data set [14] in a line: Half life in rat at 30 mg/kg, po. In kind it is ADME, organism-based. Also on record: dose 30 mg/kg, route oral. The conditions noted are these: in vivo.

As usually defined, the MRT is the average time that molecules of a dose stay in the body. Broadly, the Cmax is the maximum level reached in the sampled fluid or tissue. A word on the AUC: it is concentration integrated over time. A lower AUC goes with low exposure. What is called Tmax is the time at which the peak concentration occurs. A word on the half-life: it is how long it takes for the measured level to halve. Low values mean rapid decline, high ones slow decline.

Turning to `CC#C[C@]1(O)CC[C@H]2[C@@H]3OCC4=CC(=O)CCC4=C3[C@@H](c3ccc(N(C)C)cc3)C[C@@]21C`, in data set [1], the Efficacy is recorded as 110%. Moreover, the ED50 in data set [2] turned out to be 2.4 mg/kg.
In data set [3], `CN(C)c1ccc([C@H]2C[C@@]3(C)[C@@H](CC[C@@]3(O)C#Cc3ccc(F)cc3)[C@@H]3OCC4=CC(=O)CCC4=C32)cc1` showed an MRT of 9.4 h. For the same molecule, the Cmax in [4] was 48.7 ng/mL. The AUC in data set [5] is 505 ng·h/mL; in [7], 460 ng·h/mL. Moreover, the Tmax in [6] was 3 h. In [8], this molecule had a half-life of 6.88 h.
Regarding `CN(C)c1ccc([C@H]2C[C@@]3(C)[C@@H](CC[C@@]3(O)C#Cc3ccccc3)[C@@H]3OCC4=CC(=O)CCC4=C32)cc1`, the Efficacy in data set [1] was 100%. The ED50 in data set [2] came to 2.5 mg/kg.
Turning to `CC#C[C@]1(O)CC[C@H]2[C@@H]3CCC4=CC(=O)CCC4=C3[C@@H](c3ccc(N(C)C)cc3)C[C@@]21C` [MIFEPRISTONE], the AUC was found to be 3570 ng·h/mL in data set [9] and 446 ng·h/mL in [12]. The same molecule had a Cmax in data set [10] of 53.8 ng/mL. Besides, the Tmax in [11] was determined as 12.5 h. Also, the mean residence time (MRT) in data set [13] was determined as 8 h. This molecule also showed a half-life in data set [14] of 5.56 h. Also, in data set [1], the Efficacy is 130%. In addition, in [2], the ED50 turned out to be 2.1 mg/kg.
